For this experiment, the target named is T1, SHP2 protein (Homo sapiens, UniProt Q06124).
T1 sequence (Q06124 1-593): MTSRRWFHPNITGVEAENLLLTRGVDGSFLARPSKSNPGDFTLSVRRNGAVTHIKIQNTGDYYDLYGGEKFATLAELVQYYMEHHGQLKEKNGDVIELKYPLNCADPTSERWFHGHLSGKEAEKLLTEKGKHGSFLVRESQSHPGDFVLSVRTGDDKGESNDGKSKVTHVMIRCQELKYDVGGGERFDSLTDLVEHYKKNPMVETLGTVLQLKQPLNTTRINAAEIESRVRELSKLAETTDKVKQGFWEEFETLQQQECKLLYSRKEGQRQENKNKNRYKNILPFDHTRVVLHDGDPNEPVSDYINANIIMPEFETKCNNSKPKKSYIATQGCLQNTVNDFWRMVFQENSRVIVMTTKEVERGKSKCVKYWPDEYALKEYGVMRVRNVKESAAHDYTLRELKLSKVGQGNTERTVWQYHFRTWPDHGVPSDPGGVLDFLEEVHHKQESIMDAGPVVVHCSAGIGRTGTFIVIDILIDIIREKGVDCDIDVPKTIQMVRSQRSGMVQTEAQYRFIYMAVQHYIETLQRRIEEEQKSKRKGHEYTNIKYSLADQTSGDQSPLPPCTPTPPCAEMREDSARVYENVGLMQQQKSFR
Description: Degradation activity on SHP2 protein in MIA Paca-2 cells (Western blot, DC50). It counts as cell-based. Also noted: endogenous in cells; host or cells: MIA Paca-2 cells. The following applies: read-out: Degradation activity for differenct cell lines MIA Paca-2 (DC50). The method, then: (1) MV-411 cells were cultured in the cell culture medium, and then well-growing cells were selected and inoculated in a 12-well plate, with 1 mL/well and 1×10^6 cells/well. The plate was incubated overnight in a 5% CO2 cell incubator at 37° C.
(2) 10 mM storage solution of each drug was prepared using dimethylsulfoxide (DMSO). The stock solution was diluted gradually with DMSO before use, and then 1 μL of the compound solution was added to the cell culture well (to ensure that the DMSO concentration in the culture system was […]), so that the final drug concentration is 100 nM, 10 nM, 3 nM, 1 nM, 0.3 nM, and 0.1 nM. Two wells were set for each concentration. The plate was gently shaken and mixed. Additionally, negative control wells (containing an equal amount of DMSO) and positive control wells were included.
(3) After 24 hours of cultivation, the cells were lysed using RIPA cell lysate, and the proteins were extracted. The protein concentration was measured using a BCA assay kit. 5× concentrated protein buffer was loaded, heated at 100° C. for 5 min, and then the sample was stored at −20° C.
(4) For each well, 30 μg of protein was loaded to polyacrylamide gel for electrophoresis.
(5) The protein was transferred from polyacrylamide gel to PVDF membrane, and sealed at room temperature with 5% skimmed milk for 1 h, which was then incubated with the primary antibodies (Anti-SHP2 rabbit mAb and Anti-GAPDH rabbit mAb) at 4° C. overnight. The membrane was washed three times with TBST solution, 10 minutes for each time. After that, the membrane was incubated with the secondary antibodies (horseradish peroxidase labeled goat anti-rabbit IgG) at room temperature for 2 h, and then washed three times with TBST solution, 10 minutes for each time, followed by exposure.
(6) The images were analyzed with Image J grayscale, and the degradation ratio of protein bands in the test group was calculated, based on the negative control group (DMSO) (100%).
(7) Using the Dose-response-inhibition equation in the data processing software GraphPad Prism 8, the DC50 value was obtained (which represents the drug concentration corresponding to 50% degradation of the target protein).
Using similar methods and different cell lines, the degradation activity of the compound according to the present invention on SHP2 protein of different cell lines was tested under suitable culture conditions.
(In general: Immunoblotting shows a protein as a band on a membrane.)

Counter-ions that a name gives are not always drawn. Bounds are passed on as bounds.

What is called DC50 is the midpoint of the concentration-degradation curve. `Cc1cc(C(=O)NCc2ccc3c(c2)CN(C2CCC(=O)NC2=O)C3=O)ncc1C1=CCN(C2CCN(c3ccc(C(=O)Nc4cccc(Sc5cnc(N6CCC(C)(N)CC6)cn5)c4)cc3)CC2)CC1` (stereo not drawn) [Compound 480]: the DC50 is < 100 nM.

For `Cc1cc(C(=O)Nc2cccc(Sc3cnc(N4CCC(C)(N)CC4)cn3)c2)ccc1N1CCC(N2CC=C(c3ccc(C(=O)NCc4ccc5c(c4)CN(C4CCC(=O)NC4=O)C5=O)nc3Cl)CC2)CC1` (stereo not drawn) [Compound 441], the DC50 is > 1000 nM. For `CC1(N)CCN(c2cnc(Sc3cccc(NCC4CCC(N5CCN(c6ccc7c(c6)CN(C6CCC(=O)NC6=O)C7=O)CC5)CC4)c3)cn2)CC1` (stereo not drawn) [Compound 256], the DC50 is > 1000 nM. With `C[C@@H]1OCC2(CCN(c3cnc(Sc4cccc(NC(=O)C5CCC(N6CC7(CCN(c8ccc(C(=O)NCc9ccc%10c(c9)CN(C9CCC(=O)NC9=O)C%10=O)cn8)C7)C6)CC5)c4)cn3)CC2)[C@@H]1N` (stereo partly drawn) [Compound 489], the 50% degradation concentration (DC50) is > 1000 nM. On to `C[C@@H]1OCC2(CCN(c3cnc(Sc4cccc(NC(=O)CCN5CC=C(c6ccc(C(=O)NCc7ccc8c(c7)CN(C7CCC(=O)NC7=O)C8=O)nc6)C(C)(C)C5)c4)cn3)CC2)[C@@H]1N` (stereo partly drawn) [Compound 275], for which the DC50 was > 1000 nM. As to `C[C@@H]1OCC2(CCN(c3cnc(Sc4cccc(NC(=O)COc5ccc(N6CCN(c7ccc(C(=O)NCc8ccc9c(c8)CN(C8CCC(=O)NC8=O)C9=O)nn7)CC6)cc5)c4)cn3)CC2)[C@@H]1N` (stereo partly drawn) [Compound 263], the DC50 is < 100 nM. Take `CC1(N)CCN(c2cnc(-c3cccc(NC(=O)c4ccc(N5CCC(N6CC=C(c7ccc(C(=O)NCc8ccc9c(c8)CN(C8CCC(=O)NC8=O)C9=O)nn7)CC6)CC5)cc4)c3)cn2)CC1` (stereo not drawn) [Compound 407]: the DC50 is > 1000 nM. As for `C[C@@H]1OCC2(CCN(c3cnc(Sc4cccc(NC(=O)c5ccc(N6CCC(N7CC=C(c8ccc(C(=O)NCc9ccc%10c(c9)CN(C9CCC(=O)NC9=O)C%10=O)c(Cl)c8)CC7)CC6)c(F)c5)c4)cn3)CC2)[C@@H]1N` (stereo partly drawn) [Compound 479], the DC50 lay within 100 to 1000 nM. The figure for `Cc1ncsc1-c1ccc([C@H](C)NC(=O)[C@@H]2C[C@@H](O)CN2C(=O)[C@@H](NC(=O)c2cnc(N3CCN(C4CC(C(=O)Nc5cccc(Sc6cnc(N7CCC8(CC7)CO[C@@H](C)[C@H]8N)cn6)c5)C4)CC3)nc2)C(C)(C)C)cc1` (stereo partly drawn) [Compound 294, 2-(4-(3-((3-((5-((3S,4S)-4-amino-3-methyl-2-oxa-8-azaspiro[4.5]decan-8-yl)pyrazin-2-yl)thio)phenyl)carbamoyl)cyclobutyl)piperazin-1-yl)-N—((S)-1-((2S,4R)-4-hydroxyl-2-(((S)-1-(4-(4-methylthiazol-5-yl)phenyl)ethyl)carbamoyl)pyrrolin-1-yl)-3,3-dimethyl-1-oxobutane-2-yl)pyrimidine-5-formamide hydrochloride] is < 100 nM; for `C[C@H](N)C(=O)N[C@@H](Cc1ccccc1)C(=O)NC1(C)CCN(c2cnc(Sc3cccc(NC(=O)c4ccc(N5CCC(N6CC=C(c7ccc(C(=O)NCc8ccc9c(c8)CN(C8CCC(=O)NC8=O)C9=O)nc7)CC6)CC5)cc4)c3)cn2)CC1` (stereo partly drawn) [Compound 427] it is > 1000 nM. As to `CC1(N)CCN(c2cnc(Sc3cccc(NC(=O)c4ccc(N5CCC(N6CCN(c7cnc(C(=O)NCc8ccc9c(c8)CN(C8CCC(=O)NC8=O)C9=O)cc7Cl)CC6)CC5)cc4)c3)cn2)CC1` (stereo not drawn) [Compound 508], the half-maximal degradation concentration (DC50) is < 100 nM. In the case of `Cc1nc(C(=O)NCc2ccc3c(c2)CN(C2CCC(=O)NC2=O)C3=O)ccc1C1=CCN(C2CCN(c3ccc(C(=O)Nc4cccc(Sc5cnc(N6CCC7(CC6)CO[C@@H](C)[C@H]7N)cn5)c4)cc3F)CC2)CC1` (stereo partly drawn) [Compound 461, N-{[2-(2,6-oxohexahydropyridin-3-yl)-1-oxo-2,3-dihydro-1H-isoindol-5-yl]methyl}-5-(1-{1-[2-fluoro-4-({[3-({5-[(3S,4S)-4-amino-3-methyl-8-aza-2-oxaspiro[4.5]decan-8-yl]pyrazin-2-yl}thio)phenyl]amino}carbonyl)phenyl]hexahydropyridine-4-yl}-1,2,3,6-tetrahydropyridin-4-yl)-6-methylpyridine-2-formamide hydrochloride], the DC50 was < 100 nM.
